Experimental data: US20250145571A1, “AMINO ACID PRODRUGS OF NICORANDIL” (Unicycive Therapeutics, Inc., priority 2023, published 2025)
Like-named read-outs stand apart in the source and are kept apart here.

Experiments:
[1] = Intestinal microsomal stability, rat; type: in vitro ADME; conditions: for half-life at 1 µM / microsomal CLint at 1 µM: rat intestinal microsomes 1 mg/mL protein, NADPH, 37° C.; for microsomal CLint at 1 µM: read-out: CLint (μL/min/mg protein)
Procedure: (§1) Each test compound and assay control (final concentration of […]) were incubated with intestinal microsomes (final protein concentration of 1 mg/mL) from rats, dogs or humans at 37° C. in the presence of NADPH for 0.5, 5, 10, 15, 30 and 60 minutes. The reaction was terminated by adding ice-cold acetonitrile containing internal standard (cetirizine/tolbutamide/telmisartan) at each time point following incubation. Samples were then centrifuged at 4000 rpm for 10 minutes and the supernatant was analyzed by LC-MS/MS. The in vitro half-life (t1/2) and intrinsic clearance (CLint) were calculated for the test compounds and the assay control.

[2] = Intestinal microsomal stability, dog; type: in vitro ADME; conditions: for half-life at 1 µM / microsomal CLint at 1 µM: dog intestinal microsomes 1 mg/mL protein, NADPH, 37° C.; for microsomal CLint at 1 µM: read-out: CLint (μL/min/mg protein)
Procedure: as §1

[3] = Intestinal microsomal stability, human; type: in vitro ADME; conditions: for half-life at 1 µM / microsomal CLint at 1 µM: human intestinal microsomes 1 mg/mL protein, NADPH, 37° C.; for microsomal CLint at 1 µM: read-out: CLint (μL/min/mg protein)
Procedure: as §1

[4] = Plasma stability, human plasma; type: in vitro ADME; conditions: for half-life at 1 µM / % PCR (at 60 minutes): 37° C., 1 μM; for % PCR (at 60 minutes): parent compound remaining at 60 minutes
Procedure: (§2) Each test compound and assay control (final concentration of 1 μM) were incubated with human plasma or rat plasma at 37° C. for 0.5, 5, 30 and 60 minutes. The reaction was quenched with ice-cold acetonitrile containing internal standard (cetirizine/tolbutamide/telmisartan) following incubation.

[5] = Plasma stability, rat plasma; type: in vitro ADME; conditions: for half-life at 1 µM / % PCR (at 60 minutes): 37° C., 1 μM; for % PCR (at 60 minutes): parent compound remaining at 60 minutes
Procedure: as §2

[6] = Liver microsomal stability, rat; type: in vitro ADME; conditions: for Hepatic Extraction Ratio / Predicted Hepatic CL: rat liver microsomes 0.5 mg/mL, 1 μM, NADPH
Procedure: (§3) Each test compound and assay control (final concentration of 1 μM) were incubated with liver microsomes (final protein concentration of 0.5 mg/mL) from rats, dogs or humans at 37° C. in the presence of NADPH for 0.5, 5, 10, 15, 30 and 60 min. The reaction was terminated by adding ice-cold acetonitrile containing internal standard at each time point following incubation. The samples were then centrifuged at 4000 rpm for 10 minutes and the supernatant was analyzed by LC-MS/MS. The predicted hepatic clearance and the hepatic extraction ratio were calculated for the test compounds and the assay control.

[7] = Liver microsomal stability, dog; type: in vitro ADME; conditions: for Hepatic Extraction Ratio / Predicted Hepatic CL: dog liver microsomes 0.5 mg/mL, 1 μM, NADPH
Procedure: as §3

[8] = Liver microsomal stability, human; type: in vitro ADME; conditions: for Hepatic Extraction Ratio / Predicted Hepatic CL: human liver microsomes 0.5 mg/mL, 1 μM, NADPH
Procedure: as §3

[9] = rat; for AUClast / Cmax / F (%) / Tmax / t1/2 / AUClast (ng * h/mL) / Cmax (ng/mL) / Median Tmax: male, Sprague-Dawley; for AUClast / Cmax / F (%) / Tmax / t1/2 / AUClast (ng * h/mL) / Cmax (ng/mL) / Median Tmax / increase in AUC from 3 mg/kg to 14 mg/kg (in words) / release of nicorandil in vivo (in words): po
[10] = Pharmacokinetic study in rats, single oral dose; conditions: rat, 0.25% sodium CMC
[11] = compared to nitrate salt of compound 8

## CCCCCCCCCCCC(=O)OC[n+]1cccc(C(=O)NCCO[N+](=O)[O-])c1.[Cl-] [Compound 10]
[1]
  half-life at 1 µM: 26 min
  microsomal CLint at 1 µM: 27 µL/min/mg
[1]; rat intestinal microsomes, compared to nitrate salt of compound 8 and compounds 11 and 13
  clearance in intestinal microsomes (in words): high clearance
[2]
  half-life at 1 µM: 47 min
  microsomal CLint at 1 µM: 15 µL/min/mg
[2]; dog intestinal microsomes, compared to nitrate salt of compound 8 and compounds 11 and 13
  clearance in intestinal microsomes (in words): high clearance
[3]
  half-life at 1 µM: 24 min
  microsomal CLint at 1 µM: 29 µL/min/mg
[3]; human intestinal microsomes, compared to nitrate salt of compound 8 and compounds 11 and 13
  clearance in intestinal microsomes (in words): high clearance
[4]
  half-life at 1 µM: 1.23 min
  % PCR (at 60 minutes): 0%
[4]; [11]
  release in plasma (in words): rapidly released
[5]
  half-life at 1 µM: 1.59 min
  % PCR (at 60 minutes): 0%
[5]; [11]
  release in plasma (in words): rapidly released
[6]
  Hepatic Extraction Ratio: 0.84
  Predicted Hepatic CL: 46 mL/min/kg
[6]; rat liver microsomes, compared to nitrate salt of compound 8
  stability in liver microsomes (in words): unstable
[7]
  Hepatic Extraction Ratio: 1.0
  Predicted Hepatic CL: 4 mL/min/kg
[7]; dog liver microsomes, compared to nitrate salt of compound 8
  stability in liver microsomes (in words): unstable
[8]
  Hepatic Extraction Ratio: 0.90
  Predicted Hepatic CL: 19 mL/min/kg
[8]; human liver microsomes, compared to nitrate salt of compound 8
  stability in liver microsomes (in words): unstable
[9]; in vivo, 3 mg/kg
  AUClast: 5513 ng·h/mL
  Cmax: 2226 ng/mL
  F (%): 67%
  Tmax: 30 min
  t1/2: 244 min
[9]; in vivo, 3 mg/kg, pH 4.5
  AUClast (ng * h/mL): 26,838 ng * h/mL
  Cmax (ng/mL): 12,446 ng/mL
  Median Tmax: 15 min
[9]; in vivo, 14 mg/kg
  AUClast (ng * h/mL): 36,526 ng * h/mL
  Cmax: 6297 ng/mL
  F (%): 97%
  Tmax: 240 min
  t1/2: 164 min
[9]; in vivo
  oral bioavailability of nicorandil after oral dosing (in words): high
  increase in AUC from 3 mg/kg to 14 mg/kg (in words): more than dose proportional
[9]
  release of nicorandil in vivo (in words): release nicorandil in vivo

## CCC(C)(C)C(=O)OC[n+]1cccc(C(=O)NCCO[N+](=O)[O-])c1.[Cl-] [Compound 11]
[1]
  half-life at 1 µM: > 60 min
  microsomal CLint at 1 µM: 8 µL/min/mg
[2]
  half-life at 1 µM: > 60 min
  microsomal CLint at 1 µM: 9 µL/min/mg
[3]
  half-life at 1 µM: > 60 min
  microsomal CLint at 1 µM: < 6 µL/min/mg
[9]; in vivo, 3 mg/kg
  AUClast: 2289 ng·h/mL
  Cmax: 1171 ng/mL
  F (%): 28%
  Tmax: 15 min
[9]; in vivo, 3 mg/kg, pH 4.5
  AUClast (ng * h/mL): 22,632 ng * h/mL
  Cmax (ng/mL): 15,223 ng/mL
  Median Tmax: 15 min
[9]; in vivo, 14 mg/kg
  AUClast: 27422 ng·h/mL
  Cmax: 6245 ng/mL
  F (%): 72%
  Tmax: 15 min
[9]; in vivo
  increase in AUC from 3 mg/kg to 14 mg/kg (in words): more than dose proportional
[9]
  release of nicorandil in vivo (in words): release nicorandil in vivo

## Cc1oc(=O)oc1C[n+]1cccc(C(=O)NCCO[N+](=O)[O-])c1.[Cl-] [Compound 12]
[9]; in vivo, 3 mg/kg, pH 4.5
  AUClast: 8893 ng·h/mL
  Cmax: 4065 ng/mL
  Median Tmax: 30 min

## O=C(NCCO[N+](=O)[O-])c1ccc[n+](COC(=O)N2CCCC2C(=O)O)c1.[Cl-] (stereo not drawn) [Compound 13]
[1]
  half-life at 1 µM: > 60 min
  microsomal CLint at 1 µM: < 6 µL/min/mg
[2]
  half-life at 1 µM: > 60 min
  microsomal CLint at 1 µM: < 6 µL/min/mg
[3]
  half-life at 1 µM: > 60 min
  microsomal CLint at 1 µM: < 6 µL/min/mg

## CCOC(=O)[C@H](CCc1ccccc1)N[C@@H](C)C(=O)N1CCC[C@H]1C(=O)O [Enalapril]
[5]
  half-life at 1 µM: 18.9 min
  % PCR (at 60 minutes): 11.2%

## O=C(NCCO[N+](=O)[O-])c1cccnc1 [Nicorandil]
[4]
  half-life at 1 µM: > 60 min
  % PCR (at 60 minutes): 109%
[5]
  half-life at 1 µM: > 60 min
  % PCR (at 60 minutes): 114%

## CC(C)[N+](C)(CCOC(=O)C1c2ccccc2Oc2ccccc21)C(C)C [Propantheline Bromide]
[4]
  half-life at 1 µM: 21.3 min
  % PCR (at 60 minutes): 9.2%

## C[C@H](NC(=O)OC[n+]1cccc(C(=O)NCCO[N+](=O)[O-])c1)C1CCCCC1.O=[N+]([O-])[O-] [reference compound]
[1]
  half-life at 1 µM: > 60 min
  microsomal CLint at 1 µM: < 6 µL/min/mg
[2]
  half-life at 1 µM: > 60 min
  microsomal CLint at 1 µM: < 6 µL/min/mg
[3]
  half-life at 1 µM: > 60 min
  microsomal CLint at 1 µM: 9 µL/min/mg
[4]
  half-life at 1 µM: 31.2 min
  % PCR (at 60 minutes): 28.7%
[5]
  half-life at 1 µM: 38.2 min
  % PCR (at 60 minutes): 36.2%
[6]
  Hepatic Extraction Ratio: > 0.89
  Predicted Hepatic CL: > 49 mL/min/kg
[7]
  Hepatic Extraction Ratio: 0.84
  Predicted Hepatic CL: 26 mL/min/kg
[8]
  Hepatic Extraction Ratio: 0.71
  Predicted Hepatic CL: 15 mL/min/kg
[10]
  release of nicorandil in vivo (in words): release nicorandil in vivo
